Source: patent US9657015B2, “Substituted bicyclic dihydropyrimidinones and their use as inhibitors of neutrophil elastase activity” (Boehringer Ingelheim International GmbH, priority 2014, dated 2017)
In brackets after ≈: the same amount, converted by molar mass.

Assays:
[1] = molecular target: cytochrome P450 2C8 (Homo sapiens (Human), UniProt P10632); assay: Cytochrome P450 2C8 inhibition; format: in vitro ADME; conditions: human liver microsomes, Amodiaquine deethylation, 37° C.
Description: Assay for Determination of Cytochrome P450 2C8 Inhibition

[2] = molecular target: cytochrome P450 2C9 (Homo sapiens (Human), UniProt P11712); assay: Cytochrome P450 2C9 inhibition; format: in vitro ADME; conditions: human liver microsomes, Diclofenac hydroxylation, 37° C.
Description: Assay for Determination of Cytochrome P450 2C9 Inhibition

[3] = Metabolic stability with human liver microsomes; format: in vitro ADME; conditions: pH 7.6; pooled human liver microsomes, 37° C., 1 μM test compound, 1 mg/ml microsomal protein, NADPH; read-out: t1/2 INVITRO
[4] = molecular target: cytochrome P450 2C19 (Homo sapiens (Human), UniProt P33261); assay: Cytochrome P450 2C19 inhibition; format: in vitro ADME; conditions: human liver microsomes, (S)-Mephenytoin hydroxylation, 37° C.
Description: Assay for Determination of Cytochrome P450 2C19 Inhibition

[5] = Drug transport across human Caco-2 cells; format: in vitro ADME; conditions: human, Caco-2 monolayers, pH 7.2, 37° C.; for Papp A→B at 10 µM: apical-to-basal, read-out: PEAB; for Papp B→A at 10 µM: basal-to-apical, read-out: PEBA
Description: (§1) Assay for Determination of Drug Transport Across Human Caco-2 Cells
(§2) The assay provides information on the potential of a compound to pass the cell membrane, on the extent of oral absorption as well as on whether the compound is actively transported by uptake and/or efflux transporters. For the measurement of permeability across polarized, confluent human cancer colon carcinoma cells 2 (Caco-2) cell monolayers grown on permeable filter supports are used as the in vitro absorption model.
(§3) Apparent permeability coefficients (PE) of the compounds across the Caco-2 monolayers are measured (pH 7.2, 37° C.) in apical-to-basal (AB) (absorptive) and basal-to-apical (BA) (secretory) transport direction. AB permeability (PEAB) represents drug absorption from the intestine into the blood and BA permeability (PEBA) drug secretion from the blood back into the intestine via both passive permeability as well as active transport mechanisms mediated by efflux and uptake transporters that are expressed on the Caco-2 cells. The compounds are assigned to permeability/absorption classes by comparison of the AB permeabilities with the AB permeabilities of reference compounds with known in vitro permeability and oral absorption in the human. Identical or similar permeabilities in both transport directions indicate passive permeation, vectorial permeability points to additional active transport mechanisms. […] Active transport is concentration-dependently saturable.
(§4) Caco-2 cells (1-2*10^5 cells/cm^2 area) are seeded on filter inserts (Costar transwell polycarbonate or PET filters, 0.4 μm pore size) and cultured (DMEM) for 10 to 25 days. Compounds are dissolved in appropriate solvent (like DMSO, 1-20 mM stock solutions). Stock solutions are diluted with HTP-4 buffer (128.13 mM NaCl, 5.36 mM KCl, 1 mM MgSO4, 1.8 mM CaCl2, 4.17 mM NaHCO3, 1.19 mM Na2HPO4×7H2O, 0.41 mM NaH2PO4×H2O, 15 mM HEPES, 20 mM glucose, pH 7.2) to prepare the transport solutions (typically 10 μM compound, final DMSO<=0.5%). The transport solution (TL) is applied to the apical or basolateral donor side for measuring A-B or B-A permeability (3 filter replicates), respectively. The receiver side contains HTP-4 buffer supplemented with 2% BSA. Samples are collected at the start and end of experiment from the donor and at various time intervals for up to 2 hours also from the receiver side for concentration measurement by LC-MS/MS or scintillation counting. Sampled receiver volumes are replaced with fresh receiver solution.
(§5) The apparent permeability coefficients (PEAB and PEBA) of selected compounds in the Caco-2 drug transport assay described above are listed in Table 9.

[6] = Aqueous solubility (Shaked Flask Method); format: physicochemical; conditions: aqueous buffer, thermodynamic from solid, pH 6.8 (McIlvaine buffer)
Protocol: Assay for Determination of Aqueous Solubility (“Shaked Flask Method”)
Saturated solutions are prepared in well plates by adding an appropriate volume of selected aqueous media (typically in the range of 0.25-1.5 ml) into each well which contains a known quantity of solid drug substance (typically in the range 0.5-5.0 mg). The wells are shaken or stirred for a predefined time period (typically in a range of 2-24 h) and then filtered using appropriate filter membranes (typically PTFE-filters with 0.45 μm pore size). Filter absorption is avoided by discarding the first few drops of filtrate. The amount of dissolved drug substance is determined by UV spectroscopy or by HPLC with UV-detection. In addition, the pH of the aqueous saturated solution is measured using a glass-electrode pH meter.

[7] = Aqueous solubility (High Throughput Method); format: physicochemical; conditions: McIlvaine buffer pH 6.8, 2.5% DMSO, 24 h shaking; for solubility at 24 h: McIlvaine buffer pH 6.8 with 2.5% DMSO, aqueous buffer, kinetic from dmso stock
Protocol: Assay for Determination of Aqueous Solubility (“High Throughput Method”)
Starting from a 10 mM DMSO stock solution, aliquots are diluted with acetonitrile/water (1/1) and McIlvaine buffer pH 6.8, respectively. After 24 h of shaking, the solutions or suspensions are filtered and analyzed by LC-UV. The amount dissolved in buffer is compared to the amount dissolved in the acetonitrile/water (1/1) solution. Solubility is measured from 0.001 to 0.125 mg/ml at a DMSO concentration of 2.5%. If more than 90% of the compound is dissolved in buffer, the value is marked with “>”.

[8] = molecular target: neutrophil elastase in human plasma (Homo sapiens (Human), UniProt P08246); assay: Neutrophil elastase inhibitory activity in human plasma; format: biochemical; conditions: human plasma assay (zymosan-stimulated blood plasma), substrate 250 μM, pH 7.5
[9] = molecular target: Human neutrophil elastase (Homo sapiens (Human), UniProt P08246); assay: Human Neutrophil Elastase Assay; format: biochemical; conditions: substrate MeOSuc-Ala-Ala-Pro-Val-AMC 250 μM, pH 7.5, room temperature
Protocol: The following buffers were used: Compound buffer: 100 mM Tris, 500 mM NaCl, adjusted to pH 7.5; Assay buffer: 100 mM Tris, 500 mM NaCl, adjusted to pH 7.5, containing 0.01% BSA.
Assay conditions: Test compounds were prediluted in DMSO and subsequently in compound buffer (5% DMSO final). […] After inactivation of the enzyme, fluorescence intensities were measured at 380 nm excitation and 460 nm emission wavelengths.
Each plate contains wells with a high value control (DMSO+enzyme+substrate) and wells with a low value control (DMSO+inactivated enzyme+substrate). IC50 values were estimated using a sigmoidal concentration response curve with variable slope. Means of low values were taken as 0%, means of high values as 100%.

[10] = Metabolic stability with human hepatocytes; format: in vitro ADME; conditions: human hepatocyte suspension (typically cryopreserved), 1 μM test compound, six hours, scaled with well stirred model
Protocol: Assay for the Determination of Metabolic Stability with Human Hepatocytes
The metabolic degradation of the test compound is assayed in a human hepatocyte suspension. Human hepatocytes (typically cryopreserved) are incubated in an appropriate buffer system (e.g. Dulbecco's modified eagle medium plus 3.5 μg glucagon/500 mL, 2.5 mg insulin/500 mL and 3.75 mg/500 mL hydrocortison) containing 5% species serum. Following a (typically) 30 min preincubation in an incubator (37° C., 10% CO2), 5 μl of test compound solution (80 μM; from 2 mM stock solution in DMSO diluted 1:25 with medium) are added into 395 μl hepatocyte suspension (cell density in the range 0.25-5*10^6 cells/mL, typically 1*10^6 cells/mL; final concentration of test compound 1 μM, final DMSO concentration 0.05%). The cells are incubated for six hours (incubator, orbital shaker) and samples (25 μl) are taken at 0, 0.5, 1, 2, 4 and 6 hours. Samples are transferred into acetonitrile and pelleted by centrifugation (5 min) The supernatant is transferred to a new 96-deepwell plate, evaporated under nitrogen and resuspended. The decline of parent compound is analyzed by LC-MS/MS.
The intrinsic clearance CL_[…] is calculated as follows: CL_[…]=Dose/AUC=(C0/CD)/(AUD+clast/k)*1′000/60 (C0: initial concentration in the incubation [μM], CD: cell density of vital cells [10^6 cells/mL], AUD: area under the data [μM*h], clast: concentration of last data point [μM], k: slope of the regression line for parent decline [h^−1])
The calculated in vitro hepatic intrinsic clearance can be scaled up to the intrinsic in vivo hepatic clearance and used to predict hepatic in vivo blood clearance (CL) by the use of a liver model (well stirred model): CL_[…]_INVIVO [ml/min/kg]=(CL_[…] [μL/min/10^6 cells]*hepatocellularity [10^6 cells/g liver]*liver factor [g/kg bodyweight])/1′000 CL [ml/min/kg]=CL_[…]_INVIVO [ml/min/kg]*hepatic blood flow [ml/min/kg]/(CL_[…]_INVIVO [ml/min/kg]+hepatic blood flow [ml/min/kg]) Qh [%]=CL [ml/min/kg]/hepatic blood flow [ml/min/kg]) (Hepatocellularity, human: 120*10^6 cells/g liver; liver factor, human: 25.7 g/kg bodyweight; blood flow, human: 21 ml/(min*kg))

[11] = tested on: Caco-2 cells; assay: Drug transport across human Caco-2 cells; format: in vitro ADME; conditions: Caco-2 monolayers, pH 7.2, 37° C.; for PEAB: apical-to-basal; for PEBA: basal-to-apical
Description: as §1, §2, §3, §4, §5

Sequence of cytochrome P450 2C9 (P11712 whole entry): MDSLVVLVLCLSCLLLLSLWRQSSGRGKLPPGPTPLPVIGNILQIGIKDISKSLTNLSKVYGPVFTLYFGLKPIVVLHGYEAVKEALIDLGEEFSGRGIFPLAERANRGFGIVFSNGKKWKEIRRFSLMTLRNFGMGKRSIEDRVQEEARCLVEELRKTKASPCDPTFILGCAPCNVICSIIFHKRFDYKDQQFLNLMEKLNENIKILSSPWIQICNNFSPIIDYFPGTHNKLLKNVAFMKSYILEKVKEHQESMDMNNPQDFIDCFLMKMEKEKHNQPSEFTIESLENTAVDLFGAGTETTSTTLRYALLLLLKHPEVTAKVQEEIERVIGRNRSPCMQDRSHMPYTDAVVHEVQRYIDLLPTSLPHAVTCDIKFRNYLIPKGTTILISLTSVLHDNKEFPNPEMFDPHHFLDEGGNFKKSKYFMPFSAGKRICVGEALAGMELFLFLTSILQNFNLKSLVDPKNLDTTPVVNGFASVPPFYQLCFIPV
Sequence of cytochrome P450 2C19 (P33261 whole entry): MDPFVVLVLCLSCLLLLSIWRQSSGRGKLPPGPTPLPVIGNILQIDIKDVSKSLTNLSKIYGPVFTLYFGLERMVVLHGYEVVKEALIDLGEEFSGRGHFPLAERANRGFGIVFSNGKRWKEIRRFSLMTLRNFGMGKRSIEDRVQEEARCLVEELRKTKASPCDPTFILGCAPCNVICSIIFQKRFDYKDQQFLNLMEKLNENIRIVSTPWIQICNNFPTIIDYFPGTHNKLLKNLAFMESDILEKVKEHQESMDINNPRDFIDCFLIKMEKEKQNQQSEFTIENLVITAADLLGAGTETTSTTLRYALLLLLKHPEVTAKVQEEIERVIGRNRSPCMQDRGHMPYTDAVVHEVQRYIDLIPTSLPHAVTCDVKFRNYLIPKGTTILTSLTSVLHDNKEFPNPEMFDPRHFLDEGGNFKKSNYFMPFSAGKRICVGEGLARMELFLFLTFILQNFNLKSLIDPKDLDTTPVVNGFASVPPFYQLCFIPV
Sequence of cytochrome P450 2C8 (P10632 whole entry): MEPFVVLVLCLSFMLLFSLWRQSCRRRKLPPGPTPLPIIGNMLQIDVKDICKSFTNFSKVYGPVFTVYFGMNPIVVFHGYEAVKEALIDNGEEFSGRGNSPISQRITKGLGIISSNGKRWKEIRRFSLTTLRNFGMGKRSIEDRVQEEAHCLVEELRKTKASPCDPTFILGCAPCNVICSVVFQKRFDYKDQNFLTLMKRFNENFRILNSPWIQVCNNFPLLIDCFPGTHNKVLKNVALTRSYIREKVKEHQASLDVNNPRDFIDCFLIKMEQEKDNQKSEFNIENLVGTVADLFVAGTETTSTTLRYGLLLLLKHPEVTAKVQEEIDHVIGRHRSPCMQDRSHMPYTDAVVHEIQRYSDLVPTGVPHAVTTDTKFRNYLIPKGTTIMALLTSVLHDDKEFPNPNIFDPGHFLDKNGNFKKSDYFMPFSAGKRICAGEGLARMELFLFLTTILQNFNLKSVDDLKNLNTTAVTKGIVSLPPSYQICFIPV
Sequence of neutrophil elastase in human plasma (P08246 30-247): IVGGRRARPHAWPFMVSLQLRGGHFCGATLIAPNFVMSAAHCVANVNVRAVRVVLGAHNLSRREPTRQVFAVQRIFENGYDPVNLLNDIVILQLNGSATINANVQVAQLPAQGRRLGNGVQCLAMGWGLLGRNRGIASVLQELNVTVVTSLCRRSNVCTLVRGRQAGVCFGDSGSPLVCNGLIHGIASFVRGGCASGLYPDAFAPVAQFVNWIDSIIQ
Sequence of Human neutrophil elastase (P08246 30-247): as above

SMILES: N#Cc1ccc([C@H]2NC(=O)N(c3cccc(C(F)(F)F)c3)C3=C2C(=O)NCC3)cc1 [Example 1A, (R)-4-(2,5-Dioxo-1-(3-(trifluoromethyl)phenyl)-1,2,3,4,5,6,7,8-octahydropyrido[4,3-d]-pyrimidin-4-yl)benzonitrile]
- IC50 [1]: > 50000 nM
- IC50 [2]: > 50000 nM
- half-life at 1 μM [3]: > 2.17 h
- IC50 [4]: > 50000 nM
- Papp A→B at 10 µM [5]: 6.6 ×10⁻⁶ cm/s
- Papp B→A at 10 µM [5]: 44 ×10⁻⁶ cm/s
- solubility [6]: ≥ 10 µg/mL
- solubility at 24 h [7]: > 100 µg/mL
- IC50 [8]: 3.4 nM
- IC50 [9]: 3.1 nM

SMILES: CN1C(=O)N(c2cccc(C(F)(F)F)c2)C2=C(C(=O)NCC2)[C@H]1c1ccc(C#N)cc1-c1cnn(C)c1 [Example 31A, 3-(1-Methyl-1H-pyrazol-4-yl)-4-[(4R)-3-methyl-2,5-dioxo-1-[3-(trifluoromethyl)-phenyl]-1H,2H,3H,4H,5H,6H,7H,8H-pyrido[4,3-d]pyrimidin-4-yl]benzonitrile]
- IC50 [1]: > 50000 nM
- IC50 [2]: > 50000 nM
- half-life at 1 μM [3]: > 2.17 h
- IC50 [4]: > 50000 nM
- Papp A→B at 10 µM [5]: 12 ×10⁻⁶ cm/s
- Papp B→A at 10 µM [5]: 100 ×10⁻⁶ cm/s
- solubility [6]: ≥ 10 µg/mL
- CLhep predicted at 1 μM [10]: 3 mL/min/kg
- solubility at 24 h [7]: 11 µg/mL (≈ 21.7 µM)
- IC50 [8]: < 1 nM
- IC50 [9]: < 1 nM

SMILES: CN1C(=O)N(c2cccc(C(F)(F)F)c2)C2=C(C(=O)NCC2)C1c1ccc(C#N)cc1-c1cccnc1 (stereo not drawn) [Example 34, 4-{3-Methyl-2,5-dioxo-1-[3-(trifluoromethyl)phenyl]-1H,2H,3H,4H,5H,6H,7H,8H-pyrido[4,3-d]pyrimidin-4-yl}-3-(pyridin-3-yl)benzonitrile]
- IC50 [1]: > 50000 nM
- IC50 [2]: > 50000 nM
- IC50 [4]: > 50000 nM
- Papp A→B at 10 µM [5]: 11 ×10⁻⁶ cm/s
- Papp B→A at 10 µM [5]: 79 ×10⁻⁶ cm/s
- CLhep predicted at 1 μM [10]: 4 mL/min/kg
- IC50 [8]: 1.6 nM
- IC50 [9]: < 1 nM

SMILES: CN1CCC2=C(C1=O)C(c1ccc(C#N)cc1-c1ccncc1)N(C)C(=O)N2c1cccc(C(F)(F)F)c1 (stereo not drawn) [Example 36.2]
- PEAB [11]: 25 ×10⁻⁶ cm/s
- PEBA [11]: 150 ×10⁻⁶ cm/s
- Aqueous solubility [7]: 70 µg/mL
- IC50 [8]: 1.8 nM
- IC50 [9]: 1.3 nM

SMILES: CN1CCC2=C(C1=O)C(c1ccc(C#N)cc1-c1cncnc1)N(C)C(=O)N2c1cccc(C(F)(F)F)c1 (stereo not drawn) [Example 36.3]
- PEAB [11]: 12 ×10⁻⁶ cm/s
- PEBA [11]: 110 ×10⁻⁶ cm/s
- Aqueous solubility [7]: 76 µg/mL
- IC50 [8]: 1.4 nM
- IC50 [9]: 1.1 nM
